Biological target: T1, IRAK4 kinase protein (Homo sapiens, UniProt Q9NWZ3)
T1 sequence (Q9NWZ3 1-460): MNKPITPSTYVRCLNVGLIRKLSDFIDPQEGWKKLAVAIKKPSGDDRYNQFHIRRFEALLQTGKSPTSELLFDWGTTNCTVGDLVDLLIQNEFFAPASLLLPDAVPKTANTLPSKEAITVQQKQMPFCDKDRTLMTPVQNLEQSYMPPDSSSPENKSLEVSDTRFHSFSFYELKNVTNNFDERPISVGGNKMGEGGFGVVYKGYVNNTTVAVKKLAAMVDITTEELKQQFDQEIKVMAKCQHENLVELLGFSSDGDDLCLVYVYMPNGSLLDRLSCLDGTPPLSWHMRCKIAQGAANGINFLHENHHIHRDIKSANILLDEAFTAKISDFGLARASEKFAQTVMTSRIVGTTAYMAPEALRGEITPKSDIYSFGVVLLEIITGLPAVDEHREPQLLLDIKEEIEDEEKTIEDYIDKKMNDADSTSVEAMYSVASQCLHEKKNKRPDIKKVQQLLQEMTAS
Assay: IRAK4 kinase inhibition assay (Cisbio HTRF KinEASE-STK S1 kit)
Assay type: biochemical
Settings: IRAK4 10 nM, ATP 200 μM, substrate 1 μM, 37° C. for 2 h, read-out: IRAK4 inhibitory activity IC50
Protocol: In this assay, the Cisbio HTRF KinEASE-STK SI kit (62S1PEB) was used. The assay/detection buffer, STK Substrate 1-biotin, Streptavidin-XL665, and STKAntibody-Crypatete were all contained in the kit.
After the compound/DMSO was added to a 384-well plate (PerkinElmer 6008280) using Echo 665, 5 μL of 2-fold reaction concentration of IRAK4 kinase protein (final concentration: 10 nM) dissolved with an assay buffer [1 volume of 5× kinase buffer+20 mM magnesium chloride (Sigma) solution+1 mM DTT (Alfa Aesar) solution+4 volumes of deionized water] was added. The shallow well plate was sealed, shaken, centrifuged at 1000 rpm for 1 min, and then incubated at room temperature for 5 min. Then, 5 μL of 2-fold reaction concentration of a 1:1 mixture of STK Substrate 1-biotin (final concentration: 1 μM) and ATP (Sigma A1852) (final concentration: 200 μM) formulated with the assay buffer was added. The shallow well plate was sealed, shaken, centrifuged at 1000 rpm for 1 min, and then incubated at 37° C. for 2 h, followed by the addition of 10 μL of a 1:1 mixture of Streptavidin-XL665 (final concentration: 62.5 nM) and STK-antibody-cryptate dissolved with a detection buffer. The shallow well plate was sealed, shaken, centrifuged at 1000 rpm for 1 min, and then incubated at room temperature for 1 h, and then the value at the wavelength of 620 nm/665 nm was read using a microplate reader. The data were analyzed using Prism 9.3 software, and the IC50 value of IRAK4 kinase inhibition was fitted using a four parameter Logistic equation.

IC50 [µM] | SMILES
5 to 10 | FC(F)c1nn(C2CCCCC2)c2cnc(-n3ccc4ccc(N5CCOCC5)nc43)cc12 [Compound C1]
1 to 5 | N#Cc1cnc2c(-c3cc4c(C(F)F)nn(C5CCCCC5)c4cn3)cnn2c1 [Compound C3i]
< 1 | NC(=O)c1cnn2c(-c3cc4c(C(F)F)nn(C5CCCCC5)c4cn3)ccc2c1 [Compound C4ii]
> 10 | N#Cc1cnc2c(ccn2-c2cc3c(C(F)F)nn(C4CCCCC4)c3cn2)c1 [Compound C5i]
1 to 5 | NC(=O)c1cnc2c(ccn2-c2cc3c(C(F)F)nn(C4CCCCC4)c3cn2)c1 [Compound C5ii]

Reference: US20260200944A1, “NOVEL IRAK4 INHIBITOR AND COMPOUND FOR INHIBITING AND DEGRADING IRAK4 PROTEIN, AND PREPARATION METHOD THEREFOR AND USE THEREOF” (DOVETREE MEDICINES UNUS, INC., priority 2022, published 2026)
